The text below walks through data of US20220041559A1, “BENZO-AND PYRIDO-PYRAZOLES AS PROTEIN KINASE INHIBITORS” (ROTTAPHARM BIOTECH S.R.L., priority 2019, published 2022).

Each structure is given as a SMILES string.

In one experiment the target is T1, FYN (Homo sapiens, UniProt P06241).
T1 construct: purchased CarnaBioscience
The experiment can be described thus: Z'-LYTE in vitro kinase assay, FYN kinase inhibition. Particulars: for IC50: near-Km ATP, 60 minutes at 25° C. Format: biochemical. The protocol:
Assays to determine the kinase inhibitory activity of compounds were performed using an automatic liquid handling device (Microlab STAR Hamilton) and Z′-LYTE™ Kinase Assay Platform (Invitrogen), a Fluorescence Resonance Energy Transfer (FRET)-based assay platform compatible with high-throughput screening (HTS) applications. The assay employs a fluorescence-based, coupled-enzyme format and utilizes the differential sensitivity of phosphorylated and non-phosphorylated peptides to proteolytic cleavage.
Test compounds were evaluated towards active FYN (CarnaBioscience). The enzyme was incubated in a 384 low-volume microplate with a synthetic peptide-substrate, ATP and different inhibitor concentrations, ranging from 10^−10 M up to 10^−5 M final concentration. Samples representing the 0% inhibition (or total enzymatic activity) were in the presence of compound diluent (1% DMSO final) in Reaction Buffer (50 mM Hepes, 10 mM MgCl2, 1 mM EGTA, 0.01% Brij-35, pH 7.5).
A near-Km ATP concentrations for the kinase and an optimal enzyme concentration that phosphorylates 20-40% of the Z′-LYTE™ Tyr 2 Peptide in a one-hour incubation, were selected. All reagents were diluted in reaction buffer and the kinase reaction was carried out in a total volume of 10 μl, for 60 minutes at 25° C. The 0% Phosphorylation (i.e. no ATP) and 100% Phosphorylation (i.e. synthetically phosphorylated peptide supplied) Assay Controls, included in each plate, allowed to calculate the percent phosphorylation achieved in the specific reaction well. The 0% Inhibition and 0% Phosphorylation (i.e. 100% Inhibition) Controls define the dynamic range in the screen. At the end of incubation, a secondary reaction (the Development Reaction) started by adding 5 μl of Development Reagent, containing a site-specific protease that recognizes and cleaves non-phosphorylated peptides, and was interrupted after 60 minutes with 5 μl/sample of Stop Reagent. Measurement of the Coumarin (Ex. 400 nm, Em. 460 nm) and Fluorescein (Ex. 400 nm, Em. 535 nm) emission signals were performed by a fluorescence plate reader (Envision, PerkinElmer).
Results are expressed as percentage of inhibition and the IC50 values were calculated by non-linear curve fitting using GraphPad™ Prism software.

For the next experiment, the target named is T2, VEGFR2 (KDR) kinase (Homo sapiens, UniProt P35968).
T2 construct: purchased SignalChem
T2 sequence (P35968 20-1356): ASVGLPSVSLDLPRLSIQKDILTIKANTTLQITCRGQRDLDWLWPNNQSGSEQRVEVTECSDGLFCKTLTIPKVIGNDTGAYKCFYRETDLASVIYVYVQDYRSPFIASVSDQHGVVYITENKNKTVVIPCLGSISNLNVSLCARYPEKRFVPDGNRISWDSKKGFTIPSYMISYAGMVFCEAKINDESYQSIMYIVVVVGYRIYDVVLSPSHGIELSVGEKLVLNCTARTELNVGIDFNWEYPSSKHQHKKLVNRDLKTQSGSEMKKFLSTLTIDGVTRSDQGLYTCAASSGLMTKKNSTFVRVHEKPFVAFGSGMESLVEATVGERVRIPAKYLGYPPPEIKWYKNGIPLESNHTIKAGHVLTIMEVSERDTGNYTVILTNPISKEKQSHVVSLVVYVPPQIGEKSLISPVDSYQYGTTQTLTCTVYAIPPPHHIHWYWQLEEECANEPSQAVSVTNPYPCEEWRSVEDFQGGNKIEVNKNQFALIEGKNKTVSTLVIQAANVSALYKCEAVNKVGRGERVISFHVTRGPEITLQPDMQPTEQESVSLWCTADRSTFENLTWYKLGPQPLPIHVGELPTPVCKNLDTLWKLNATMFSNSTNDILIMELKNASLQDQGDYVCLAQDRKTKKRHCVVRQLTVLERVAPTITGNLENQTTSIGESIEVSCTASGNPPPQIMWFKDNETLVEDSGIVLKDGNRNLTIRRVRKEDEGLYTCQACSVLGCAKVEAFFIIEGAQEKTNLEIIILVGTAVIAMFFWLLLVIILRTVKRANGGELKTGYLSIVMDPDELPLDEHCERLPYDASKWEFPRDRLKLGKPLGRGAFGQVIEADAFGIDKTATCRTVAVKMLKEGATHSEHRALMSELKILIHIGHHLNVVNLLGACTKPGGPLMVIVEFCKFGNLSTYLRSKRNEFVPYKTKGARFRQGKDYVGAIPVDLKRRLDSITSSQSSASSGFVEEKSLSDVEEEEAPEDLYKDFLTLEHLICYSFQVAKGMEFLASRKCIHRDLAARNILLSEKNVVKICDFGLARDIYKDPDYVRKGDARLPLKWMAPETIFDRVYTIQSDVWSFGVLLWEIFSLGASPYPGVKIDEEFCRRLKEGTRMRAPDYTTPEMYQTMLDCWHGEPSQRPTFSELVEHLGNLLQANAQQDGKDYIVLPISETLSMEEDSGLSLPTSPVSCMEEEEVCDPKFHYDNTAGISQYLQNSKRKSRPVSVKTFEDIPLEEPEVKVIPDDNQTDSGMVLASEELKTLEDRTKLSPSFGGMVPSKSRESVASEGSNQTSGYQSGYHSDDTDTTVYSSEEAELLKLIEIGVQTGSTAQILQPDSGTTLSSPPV
The experiment can be described thus: ADP-Glo in vitro kinase assay, VEGFR2 kinase inhibition. Format: biochemical. Particulars: for IC50: ATP 50 μM, 30 minutes at room temperature; for VEGFR2 kinase inhibition, result in words: Table 19. On the procedure:
(§1) The ADP-Glo™ Kinase Assay (Promega), monitoring ADP produced in the kinase reaction, was performed in two steps. In the first one, after the kinase reaction, the ADP-Glo™ Reagent is added to terminate the kinase reaction and deplete the remaining ATP. In the second step, the Kinase Detection Reagent is added to simultaneously convert ADP to ATP (ATPn or newly synthesized ATP) and introduce luciferase and luciferin, allowing the ATPn to be measured (luciferase/luciferin reaction). The amount of light generated correlates with the amount of ATPn (indirectly with the ADP produced in kinase reaction).
(§2) Kinase reaction was performed in 10 μl in a white 384-well plate, inhibitor solutions in DMSO/Kinase buffer (40 mM Tris-Cl, 20 mM MgCl2, 0.1 mg/ml BSA, 50 μM DTT, pH 7.5) and VEGFR2 (KDR) kinase in Kinase buffer (SignalChem, 0.5 ng/μl final concentration in assay) were pre-incubate 15 minutes at room temperature. At the kinase concentration selected, a signal-to negative control ratio >10 was calculated, according to supplier indication. In samples representing the Total enzymatic activity or the negative control (no enzyme), inhibitor solution was replaced by diluents (1 DMSO in kinase buffer, final concentration) or ultra-pure water, respectively.
(§3) The range of inhibitor concentrations was from 10^−11 M up to 3×10^−6 M (final concentration in assay) and each experimental point was performed in duplicate.
(§4) To start the reaction, a substrate/ATP mix (50 μM final concentration, near to ATP Km value) was added to each sample and after 30 minutes incubation at room temperature, ADP-Glo™ Reagent and Kinase Detection Reagent, incubated in sequence according to the respective incubation time and supplier indication, allowed to stop and develop the kinase reaction. The luminescence was measured with a plate-reading luminometer (Envision 2104 Multilabel reader, PerkinElmer). The percentage of inhibition was calculated towards the Total enzymatic activity and the corresponding curves were analyzed by non linear curve fitting (GraphPad software, version 7 for Windows), allowing to calculate the IC50 value±standard error of the value
In general terms: In ADP-Glo the light output rises with the ADP produced.

The target in another experiment is EGFR (Homo sapiens, UniProt P00533). The experiment can be described thus: ADP-Glo in vitro kinase assay, EGFR kinase inhibition. The format is biochemical. Also on record: purchased SignalChem. Particulars: for IC50: ATP 10 μM, 30 minutes at room temperature; for EGFR kinase inhibition, result in words: text summary of Table 18. The protocol:
as §1
as §2, with “EGFR” for “VEGFR2 (KDR)”, “2.5” for “0.5”, “selected” for “selected,”, “activity (no inhibitor)” for “activity”
as §3
as §4, with “mix (ATP 10” for “mix (50”, “the estimate.” for “the value”

The target in another experiment is human FynB (Homo sapiens, UniProt P06241). The experiment can be described thus: Inhibition of FynB-induced Tau(Y18)-phosphorylation (cell-based assay, HEK293). Conditions: for IC50: HEK293 over-expressing FynB and Tau 0N4R, incubation 6 or 24 hours, ELISA; for Inhibition of FynB-induced Tau(Y18)-phosphorylation, result in words: summary of Table 20. The protocol:
HEK293 cells (Human Embryonic Kidney 293) were seeded at 6×10^5 in poly-D-lysine 12 w microplates and grown adherent in medium DMEM/10% FBS at 37° C. with 5% CO2. After 24 h, cells were transfected in order to over-express either constitutively active form of human FynB and Tau protein (isoform 0N4R), through an optimized Lipofectamine® 3000 Transfection protocol (Life Technologies™). A non-transfected sample (negative control) was included in every experiment.
Twenty-four hours from transfection, treatments of cells were performed by adding fresh medium containing diluent (DMSO 0.1% final concentration) or test compounds. The incubation was carried out for 6 or 24 hours at 37° C. with 5% CO2. All experimental conditions were performed in duplicate.
At the end of the incubation, the medium was removed and cellular lysates were obtained by adding M-PER lysis buffer containing a 1× Protease/Phosphatase inhibitors cocktail. Then, lysates were transferred into Eppendorf tubes, sonicated and stored at −80° C.
Protein content was measured by Bradford method. Lysates were analyzed by a customized ELISA assay for Tau phosphorylation (Tyrosine 18 residue-Fyn mediated) and Total amount determination. The net OD values were used to calculate the inhibitory effect of compounds.
Background: An ELISA detects its analyte on a solid surface through an enzyme-linked reagent.

Another experiment has as its system U87MG. The experiment can be described thus: Cell viability, ViaCount assay, U87MG. Format: cell-based, human. Particulars: tested cell lines (U87MG, U373). The protocol:
U87MG: a human glioblastoma astrocytoma from ATCC. Grown in DMEM medium supplemented with 10% FBS at 37° C. with CO2.
Cell viability and total cell count was performed with ViaCount Assay on Guava® Systems, which was able to distinguish viable and non-viable cells based on differential permeabilities of two DNA-binding dyes in the Guava ViaCount® Reagent. 2×10^4 cancer cells were plated in 24 well in DMEM 10%. After 72 h cells were treated with the different compounds for 24, 72 h or 7 days, with a medium change and a second treatment with the product on day 4. At the end of the incubation period the analysis was done following the kit instructions.

T1 sequence (P06241 whole entry): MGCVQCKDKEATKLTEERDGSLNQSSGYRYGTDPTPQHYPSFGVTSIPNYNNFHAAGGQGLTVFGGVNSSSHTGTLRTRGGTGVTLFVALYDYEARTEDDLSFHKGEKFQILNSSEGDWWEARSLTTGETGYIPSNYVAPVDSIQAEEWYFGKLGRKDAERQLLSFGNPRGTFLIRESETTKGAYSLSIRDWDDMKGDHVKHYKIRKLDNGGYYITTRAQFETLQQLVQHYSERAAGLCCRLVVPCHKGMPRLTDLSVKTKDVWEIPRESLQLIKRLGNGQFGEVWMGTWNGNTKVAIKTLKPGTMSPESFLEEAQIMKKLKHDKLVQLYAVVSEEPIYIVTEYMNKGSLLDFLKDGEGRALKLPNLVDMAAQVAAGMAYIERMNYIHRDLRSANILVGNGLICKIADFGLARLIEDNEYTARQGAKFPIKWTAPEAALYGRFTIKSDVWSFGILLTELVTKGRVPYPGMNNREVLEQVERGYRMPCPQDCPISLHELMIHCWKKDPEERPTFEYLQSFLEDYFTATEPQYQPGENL
EGFR, sequence (P00533 25-1210): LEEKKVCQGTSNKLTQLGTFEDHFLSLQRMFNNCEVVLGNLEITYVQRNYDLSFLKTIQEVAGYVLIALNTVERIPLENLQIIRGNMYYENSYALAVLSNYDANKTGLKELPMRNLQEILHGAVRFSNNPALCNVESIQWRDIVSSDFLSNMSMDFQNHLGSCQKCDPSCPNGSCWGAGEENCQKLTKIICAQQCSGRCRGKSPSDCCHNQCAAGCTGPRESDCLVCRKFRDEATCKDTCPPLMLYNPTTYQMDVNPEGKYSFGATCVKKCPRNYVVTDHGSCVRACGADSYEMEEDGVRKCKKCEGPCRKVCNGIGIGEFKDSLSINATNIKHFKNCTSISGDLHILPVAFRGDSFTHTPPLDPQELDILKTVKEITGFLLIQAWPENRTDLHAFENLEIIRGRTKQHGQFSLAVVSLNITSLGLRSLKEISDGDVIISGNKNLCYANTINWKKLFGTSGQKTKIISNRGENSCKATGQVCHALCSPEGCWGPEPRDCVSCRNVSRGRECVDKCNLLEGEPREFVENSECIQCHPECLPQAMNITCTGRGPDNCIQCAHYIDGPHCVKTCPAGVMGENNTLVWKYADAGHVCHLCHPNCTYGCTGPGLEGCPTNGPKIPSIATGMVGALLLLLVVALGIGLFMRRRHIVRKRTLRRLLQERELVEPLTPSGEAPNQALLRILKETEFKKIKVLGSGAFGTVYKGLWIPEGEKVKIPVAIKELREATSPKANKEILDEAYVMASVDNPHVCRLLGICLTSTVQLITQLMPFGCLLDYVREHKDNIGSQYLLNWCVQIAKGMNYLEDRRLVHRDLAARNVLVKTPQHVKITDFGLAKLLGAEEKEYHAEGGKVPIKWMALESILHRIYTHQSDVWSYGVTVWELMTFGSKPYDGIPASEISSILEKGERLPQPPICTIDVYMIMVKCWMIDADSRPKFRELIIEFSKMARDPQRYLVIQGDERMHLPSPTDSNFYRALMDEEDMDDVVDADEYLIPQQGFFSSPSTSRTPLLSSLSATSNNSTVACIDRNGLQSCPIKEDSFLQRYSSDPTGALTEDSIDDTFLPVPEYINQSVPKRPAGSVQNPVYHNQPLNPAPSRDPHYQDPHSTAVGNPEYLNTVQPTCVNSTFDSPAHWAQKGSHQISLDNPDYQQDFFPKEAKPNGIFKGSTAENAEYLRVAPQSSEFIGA
human FynB, sequence (P06241 271-524 limits assumed): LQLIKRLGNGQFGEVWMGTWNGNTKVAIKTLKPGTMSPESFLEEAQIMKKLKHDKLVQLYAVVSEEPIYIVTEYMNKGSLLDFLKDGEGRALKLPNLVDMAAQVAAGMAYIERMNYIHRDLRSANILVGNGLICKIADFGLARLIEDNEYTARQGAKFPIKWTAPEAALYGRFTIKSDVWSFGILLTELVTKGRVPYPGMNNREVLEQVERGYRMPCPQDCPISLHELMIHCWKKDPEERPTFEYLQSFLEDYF

Consider `CN1CCC(c2ccc(C(=O)Nc3n[nH]c4nc(Nc5cccc(F)c5F)ccc34)cc2)CC1` [Compound 20, N-(6-((2,3-difluorophenyl)amino)-1H-pyrazolo[3,4-b]pyridin-3-yl)-4-(1-methylpiperidin-4-yl)benzamide], for which the half-maximal inhibitory concentration (IC50) on FYN came to 209 nM; against VEGFR2 (KDR) kinase it was 105 nM; on EGFR it was 9 nM; against human FynB it was 234 nM. Also, the “EGFR kinase inhibition, result in words” value on EGFR is on record as “more active”. Moreover, the “Inhibition of FynB-induced Tau(Y18)-phosphorylation, result in words” value on human FynB is listed as “best inhibitors”.

Consider `Cc1ccc(Nc2ccc3c(NC(=O)c4ccc(C5CCN(C)CC5)cc4)n[nH]c3n2)cc1` [Compound 23, 4-(1-methylpiperidin-4-yl)-N-(6-(p-tolyamino)-1H-pyrazolo[3,4-b]pyridin-3-yl)benzamide], for which the 50% inhibitory concentration (IC50) was 111 nM against FYN, 2.6 nM on VEGFR2 (KDR) kinase, not below 1000 nM against EGFR and 230 nM at human FynB.

With `CN1CCC(c2ccc(C(=O)Nc3n[nH]c4nc(Nc5ccc6c(c5)OCO6)ccc34)cc2)CC1` [Compound 28, N-(6-(benzo[d][1,3]dioxol-5-ylamino)-1H-pyrazolo[3,4-b]pyridin-3-yl)-4-(1-methylpiperidin-4-yl)benzamide], the “FYN kinase inhibition, result in words” value at FYN (Table 17) was “more active”. Besides, the half-inhibitory concentration (IC50) at FYN is 72 nM; at VEGFR2 (KDR) kinase it was 1 nM; on EGFR, not below 1000 nM; at human FynB, 100 nM. Also, the “VEGFR2 kinase inhibition, result in words” value (shortened to “VEGFR2 kinase inhibition”) at VEGFR2 (KDR) kinase was “more potent”. The “reduction of cell viability, result in words” value in the experiment with U87MG is “active in reducing cell viability”. The “Inhibition of FynB-induced Tau(Y18)-phosphorylation, result in words” value at human FynB is listed as “best inhibitors”.

As for `Cc1ccc(Nc2ccc3c(NC(=O)c4ccc(C5CCN(C)CC5)cc4)n[nH]c3n2)c(F)c1` [Compound 30, N-(6-((2-fluoro-4-methylphenyl)amino)-1H-pyrazolo[3,4-b]pyridin-3-yl)-4-(1-methylpiperidin-4-yl)benzamide], the IC50 at FYN was found to be 115 nM; against VEGFR2 (KDR) kinase, 1 nM; against EGFR, 155 nM; against human FynB, 669 nM. In addition, at VEGFR2 (KDR) kinase, the “VEGFR2 kinase inhibition” value was “more potent”.

As for `CN1CCN(c2ccc(C(=O)Nc3n[nH]c4nc(Nc5ccccc5F)ccc34)cc2)CC1` [Compound 48, N-(6-((2-fluorophenyl)amino)-1H-pyrazolo[3,4-b]pyridin-3-yl)-4-(4-methylpiperazin-1-yl)benzamide], on FYN, the IC50 is 212 nM. On VEGFR2 (KDR) kinase, the midpoint of inhibition, the IC50, lay at 1 nM and the “VEGFR2 kinase inhibition” value is listed as “more potent”. At EGFR, the half-inhibitory concentration (IC50) is 15 nM and the “EGFR kinase inhibition, result in words” value is listed as “more active”. In addition, on human FynB, 259 nM corresponded to half-maximal inhibition (IC50) and the “Inhibition of FynB-induced Tau(Y18)-phosphorylation, result in words” value is given as “best inhibitors”.

On to `CC(=O)N1CCN(c2ccc(C(=O)Nc3n[nH]c4nc(Nc5ccccc5F)ccc34)cc2)CC1` [Compound 52, 4-(4-acetylpiperazin-1-yl)-N-(6((2-fluorophenyl)amino)-1H-pyrazolo[3,4-b]pyridin-3-yl)benzamide], for which the concentration for half-maximal inhibition (IC50) against FYN was determined as 168 nM; on human FynB it was 646 nM.

In general, IC50 refers to the concentration that inhibits the measured activity by half. The low end stands for inhibition by little substance, the high end for a need for much substance.
